Measured values reported in ChEMBL document CHEMBL4619763 (J Nat Prod, 2020).
Calls of active or inactive are those of the source. The rule behind the calls is not given here.

Key:
Rattus norvegicus [1] = assay: Anti-urolithic activity in spontaneous hypertensive Wistar rats assessed as reduction in CaOx crystal formation in cumulative urine at 0.1 mg/kg, po administered via gavage in presence of sodium oxalate by Neubauer counting chamber method relative to control; format: functional; parameters: scale not given: the % may be the effect or the level left
Rattus norvegicus [2] = assay: Diuretic activity in normotensive Wistar rat assessed as urinary calcium excretion at 0.1 mg/kg, po administered via gavage after 8 hrs in presence of L-NAME (reference value: 5.93 to 6.87 mg/dl); format: functional
Rattus norvegicus [3] = assay: Diuretic activity in normotensive Wistar rat assessed as urinary sodium excretion at 0.1 mg/kg, po administered via gavage after 8 hrs in presence of indomethacin (reference value: 61.82 to 80.81 mmol/L); format: functional
Rattus norvegicus [4] = assay: Diuretic activity in normotensive Wistar rat assessed as urinary calcium excretion at 0.1 mg/kg, po administered via gavage after 8 hrs in presence of atropine (reference value: 5.93 to 6.87 mg/dl); format: functional
[5] = Antioxidant activity assessed as DPPH radical scavenging activity at 100 to 1000 ug/ml after 5 mins; format: functional
[6] = Toxicity in normotensive Wistar rat assessed as changes in plasma calcium level at 0.1 mg/kg, po administered for 7 days; format: organism-based; conditions: in vivo, 168 h
Rattus norvegicus [7] = assay: Renal protective activity in spontaneous hypertensive Wistar rat assessed as reduction in hypertension-induced mesangial space disarrangement at 0.1 mg/kg, po administered via gavage for 7 days by hematoxylin and eosin staining based microscopic analysis; format: functional, organism-based
Rattus norvegicus [8] = assay: Diuretic activity in normotensive Wistar rat assessed as urinary calcium excretion at 0.1 mg/kg, po administered via gavage after 8 hrs in presence of furosemide (reference value: 5.93 to 6.87 mg/dl); format: functional

Compound: C[C@@H]1O[C@@H](Oc2c(-c3ccc(O)cc3)oc3cc(O)cc(O)c3c2=O)[C@H](O)[C@H](O)[C@H]1O [AFZELIN]
- Activity (Rattus norvegicus [1]): 92.53%
- Activity (Rattus norvegicus [2]): 4.82 mg/dL
- Activity (Rattus norvegicus [3]): 81.55 mmol/L
- Activity (Rattus norvegicus [4]): 4.69 mg/dL
- Activity [5]: Active
- Activity [6]: Non-Toxic
- Activity (Rattus norvegicus [7]): Active
- Activity (Rattus norvegicus [8]): 5.36 mg/dL
